The results in this text go back to patent US20100003217A1, “Compounds and Pharmaceutical Compositions for the Treatment of Viral Infections” (priority 2008, published 2010).

The EC50 is the concentration that produces a half-maximal response.

For one series, the target named is CYP3A4 (Homo sapiens, UniProt P08684). The series can be described thus: Effect of CYP3A4 inhibitors (ketoconazole, ritonavir) on metabolic stability in human liver microsomes. In kind it is in vitro ADME. The settings on record: human microsomes 1 mg/mL, 60 min, 10 μM, NADPH. Here is the method:
Incubations were conducted in a final volume of 0.1 mL per incubation time point. […] Final solvent (DMSO or methanol) concentration was maintained at 0.2%. Reactions were initiated by the addition of an NADPH regenerating system (1.3 mM NADP^+, 3.3 mM glucose-6-phosphate, 0.4 U/ml glucose-6-phosphate dehydrogenase, and 3.3 mM MgCl2, final concentrations). Incubations with no inhibitor served as control. Reactions were terminated at 30 min (monkey) or 60 min (rat and human) by the addition of 0.2 mL of stop solution (acetonitrile). The samples were vortex-mixed for 30 sec and then centrifuged at 10,000×g for 10 min. The supernatant was dried using a Labconco CentriVap concentrator and the dry residue reconstituted in water, transferred to an HPLC glass vial and analyzed by HPLC-UV method 1 (described above).
Because Compound 1 is rapidly metabolized in monkey liver microsomes, incubation conditions were adjusted by reducing protein content to 0.5 mg/mL and incubation time to 30 min. Incubation conditions for rat and human were unchanged; protein was 1 mg/mL and incubation time was 60 min.

The test system of a further series is GS4.1 cells. As to the kind of experiment: Cytotoxicity of Compound 1 and RBV on GS4.1 cells using MTS assay (combination study). The settings on record: three days, 0.6× to 1.5× EC50, alone or in combination. The method, then:
The readout of the assay was measured by the bioreduction of the yellow MTS tetrazolium compound to a purple formazan product. This conversion is mediated by NADPH or NADH in metabolically active cells and is therefore directly proportional to the number of live cells in a culture. Plates were setup as described above.
Cells were plated and treated with inhibitors using the drug matrix described above.
After three days of drug treatment, 20 μL of MTS was added to each well, and then plates were incubated at 37° C./5% CO2.
A general note: Tetrazolium dyes change colour on reduction, which living cells bring about.

The test system of series [1] is S282T HCV replicon (184R-A cells). As to the kind of experiment: microbe, parasite or virus in culture. The method, then: 3. The 184R-A cell line was derived by culturing wild-type replicon cells in the presence of 1 to 5 μM of Compound 1 for >100 days.
1. […] Huh-7 cells were seeded into column 1 of each plate at a similar density.
2. […] Eight additional 3-fold serial dilutions of each compound were prepared from the 2× stock in assay medium. Final drug concentrations ranged from 100 to 0.015 μM.
3. […] This setup was run in duplicate in each 96-well plate.
4. Cells were incubated with inhibitors for three days at 37° C./5% CO2.
1. After three days of drug treatment, media was removed from the plates via gentle tapping and the cells were fixed to the plates with 100 μL/well of 1:1 acetone:methanol.
2. After one minute of incubation at room temperature, plates were washed three times with 100 μL/well of ELISA wash solution and then blocked with 150 μL/well of 10% FBS-TNE.
3. After a one hour incubation at room temperature, plates were washed three times with 100 μL/well of ELISA wash solution, and then 100 μL/well of mouse anti-hepatitis C […] mAb (1 mg/mL stock diluted 1:1,500 in 10% FBS-TNE) was added.
4. Following 2 hours of incubation at 37° C., plates were washed three times with 100 μL/well of ELISA wash solution, and then 100 μL/well of HRP-goat anti-mouse antibody (diluted 1:4,000 in 10% FBS-TNE) was added.
4. After a one hour incubation period at 37° C., each plate was washed three times with 100 μL/well of ELISA wash solution. Color development was then initiated with 100 μL/well of OPD solution.
5. After a 30 minute incubation period in the dark at room temperature, reactions were stopped by adding 100 μL of 2NH2SO4 to each well.
6. The absorbance was measured at 490 nm on a Victor^3 V 1420 multilabel counter (Perkin Elmer). The percent inhibition of HCV replicon replication was calculated for each drug using an average of the duplicate wells.

In the next series the target is CYP2C9 (Homo sapiens, UniProt P11712). As to the kind of experiment: Incubation with human recombinant CYP450 supersomes, 2C9. In kind it is in vitro ADME. The settings on record: CYP450 2C9 supersomes, 60 min, 10 μM, average of two experiments. The method, then: Supersomes—Incubations were conducted in a final volume of 0.1 mL reaction buffer (50-100 mM potassium phosphate, pH 7.4 or 100 mM Tris-HCL, pH 7.4) according to protocol provided with each CYP450 supersome. Each reaction contained […] of CYP450 supersome, 1.3 mM NADP^+, 3.3 mM glucose-6-phosphate, 0.4 U/mL glucose-6-phosphate dehydrogenase, 3.3 mM MgCl2 and 10 μM Compound 1. Following incubation for 60 min at 37° C., 100 μL of stop solution (acetonitrile:methanol; 1:1) was added and samples centrifuged for 10 min at 10,000×g. The supernatant was then dried and reconstituted in 10 mM potassium phosphate, pH 5, further transferred to an HPLC glass vial and analyzed by HPLC-UV (described above).

The nature of series [2]: Metabolite profile in rat plasma. In kind it is in vivo, male Sprague-Dawley rats. The settings on record: rat terminal plasma, IV (2, 6, 24 h) and PO (6 h). Here is the method: Pooled terminal rat plasma samples were prepared for Group 1A, Group 1C, and Groups 2A-C. The pools were prepared by combining 1 mL of plasma from each of the four animals. Subsamples (2 mL each) of the pooled samples were transferred to 15-mL conical centrifuge tubes for extraction. To each subsample, 6 mL of methanol were added and each mixture was vortexed vigorously and then centrifuged at 5700×g for 15 minutes. The supernatant (extract 1) was transferred to a 15-mL tube. The pellets were further extracted with methanol (2 mL). Each sample was vortexed thoroughly to ensure mixing. The samples were centrifuged as described above. The supernatant (extract 2) was removed. The total volume of each extract was recorded. […] All extracts and reconstituted extracts were analyzed by LSC. Reconstituted extracts containing sufficient radioactivity were analyzed by HPLC.
Terminal plasma samples were pooled, extracted and prepared for HPLC analysis as described above. For Group 1, terminal plasma samples (2, 6, and 24 h) were pooled and analyzed by HPLC as described above. For Group 2, only the 6-h sample had sufficient radioactivity for analysis. […]

SMILES strings stand for the structures.

CYP3A4, sequence (P08684 whole entry): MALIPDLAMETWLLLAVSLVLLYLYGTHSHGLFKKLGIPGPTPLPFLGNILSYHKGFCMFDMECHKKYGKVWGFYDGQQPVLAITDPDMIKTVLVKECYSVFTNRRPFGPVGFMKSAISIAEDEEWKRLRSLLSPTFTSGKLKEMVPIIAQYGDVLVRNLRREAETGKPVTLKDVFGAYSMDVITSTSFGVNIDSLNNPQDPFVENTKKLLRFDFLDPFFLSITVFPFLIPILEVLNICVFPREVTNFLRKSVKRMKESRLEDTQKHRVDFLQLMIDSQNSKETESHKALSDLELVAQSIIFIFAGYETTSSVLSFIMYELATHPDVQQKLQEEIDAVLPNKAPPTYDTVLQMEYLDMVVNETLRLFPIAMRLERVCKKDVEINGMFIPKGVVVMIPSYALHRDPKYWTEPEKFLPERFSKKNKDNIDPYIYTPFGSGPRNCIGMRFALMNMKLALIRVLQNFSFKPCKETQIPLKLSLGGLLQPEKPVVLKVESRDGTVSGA
CYP2C9, sequence (P11712 whole entry): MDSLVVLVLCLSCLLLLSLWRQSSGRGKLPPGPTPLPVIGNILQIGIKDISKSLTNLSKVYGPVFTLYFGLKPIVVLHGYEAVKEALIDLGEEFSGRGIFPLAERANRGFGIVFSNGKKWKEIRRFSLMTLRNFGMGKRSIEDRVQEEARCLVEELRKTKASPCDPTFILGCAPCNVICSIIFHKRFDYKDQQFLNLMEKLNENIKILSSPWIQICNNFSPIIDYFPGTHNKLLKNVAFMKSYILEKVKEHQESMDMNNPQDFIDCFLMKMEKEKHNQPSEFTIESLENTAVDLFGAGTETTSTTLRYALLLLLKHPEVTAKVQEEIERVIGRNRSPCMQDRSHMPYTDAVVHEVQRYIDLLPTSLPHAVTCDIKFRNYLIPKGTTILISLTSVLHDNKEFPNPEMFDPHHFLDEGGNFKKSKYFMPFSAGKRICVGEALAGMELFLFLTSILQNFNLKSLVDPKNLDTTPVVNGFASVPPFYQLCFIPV

Turning to `CC(C)(CO)C(=O)SCCOP(=O)(NCc1ccccc1)OC[C@H]1O[C@@H](n2cnc3c(=O)[nH]c(N)nc32)[C@](C)(O)[C@@H]1O` (mixture of isomers) [Compound 1, 3-hydroxy-2,2-dimethyl-thiopropionic acid S-(2-{[(2R,3R,4R,5R)-5-(2-amino-6-oxo-1,6-dihydro-purin-9-yl)-3,4-dihydroxy-4-methyl-tetrahydro-furan-2-ylmethoxy]-benzylamino-phosphoryloxy}-ethyl) ester], the “% Residual Compound 1” value at CYP3A4 (Ketoconazole 0.1 μM) was 103%; at CYP3A4 (Ketoconazole 1 μM), 117%; at CYP3A4 (Ritonavir 0.1 μM), 92%; at CYP3A4 (Ritonavir 1 μM), 117%; at CYP3A4 (inhibitor 0 μM), 65%; at CYP2C9 it was 109%. Also, the “in vitro cytotoxicity (MTS)” value with GS4.1 cells is listed as “no evidence of in vitro cytotoxicity”. Moreover, the “Fold shift from wild-type” value in series [1] (184R-A (S282T), EC50 in resistant line divided by EC50 in wild-type cells) is listed as 30 fold. Further, it took 9 µM to reach a half-maximal effect in series [1] (Hepatitis C virus) (EC50).
For the compound `C[C@@]1(O)[C@H](O)[C@@H](CO)O[C@H]1n1cnc2c(=O)[nH]c(N)nc21` [2′-C-methyl guanosine, 9-(2-C-methyl-β-D-ribofuranosyl)guanine, reference compound], in series [2], the Plasma metabolites detected entry is on record as “only detectable metabolite”.
